In patent US20250099634A1, “METHOD OF TREATING CANCER” (Novartis AG, priority 2023, published 2025):

Legend:
[1] = test system: Grade 2 and Grade 3 advanced GEP-NET; test: NETTER-2 best overall response, ORR and DCR, central review using RECIST 1.1; type: in vivo, human; conditions: for ORR: central assessment
Text: Objective Response Rate (ORR) will be calculated as the rate of patients with a best overall response of partial response (PR) or complete response (CR). Response duration will be calculated from the time of initial response until documented tumor progression. The Duration of Response (DOR) is defined as the time from initially meeting the criteria for response (CR or PR) until the time of progression by RECIST or death due to underlying disease. DOR will be reported descriptively for each group without comparison between groups.
Overall response rate (ORR) is defined as the proportion of subjects with best overall response (BOR) of complete response (CR) or partial response (PR), as per central review and according to RECIST 1.1.
ORR will be calculated based on the FAS and according to the ITT principle. ORR and its 95% confidence interval will be presented by treatment group. The Cochran-Mantel-Haenszel chi-square test, stratified by the randomization stratification factors, will be used to compare ORR between the two treatment groups, at the 1-sided 2.5% level of significance. As a supportive analysis, ORR as per local review will be presented by treatment group, along with 95% confidence intervals.
More precisely, it counts the presence of at least one confirmed CR or confirmed PR or SD. The DCR will be calculated based on FAS according to the ITT principle. DCR and its 95% confidence interval will be presented by treatment group. The Cochrane-Mantel-Haenszel chi-square test, stratified by the randomization stratification factors, will be used to compare DCR between the two treatment groups, at the one-sided 2.5% level of significance. The p-value to be generated using the Cochrane-Mantel-Haenszel chi-square test is considered nominal, and not to be considered confirmatory as it is not part of the testing strategy. The SAP will advise on how to proceed in case of few events in any stratum.

[2] = NETTER-2 subject disposition: discontinuation of randomized treatment phase (Full Analysis Set); type: in vivo, human
Text: The discontinuation of either study treatments in both arms (Lutathera or octreotide long-acting) is not a reason for patient's withdrawal either from the clinical/tumor assessments until tumor progression, or for early study termination. However, in case of a patient's withdrawal from the clinical/tumor assessments or early study termination (based on either the patient's or the Investigator's decision), patients will undergo all exams scheduled for the End of Treatment (EOT) visit.
The Full Analysis Set (FAS) comprises all subjects to whom study treatment has been assigned by randomization. According to the intent to treat principle, subjects will be analyzed according to the treatment and strata they have been assigned to during the randomization procedure.

midgut carcinoid tumors = conditions: cited from earlier work
[3] = NETTER-1 control arm, high dose (60 mg); cited from earlier work
[4] = NETTER-2 serious adverse events in the randomized treatment period (Safety Set)
Text: All adverse events (AEs), whether or not spontaneously reported by the patient, will be recorded starting from the signing of the ICF until the end of the Treatment Phase. Safety summaries (tables, figures) include only data from the on-treatment period with the exception of baseline data which will also be summarized where appropriate (e.g. change from baseline summaries). In addition, a separate summary for death including on treatment and post treatment deaths will be provided. In particular, summary tables for adverse events (AEs) will summarize only on-treatment events, with a start date during the on-treatment period (treatment-emergent AEs).
Separate summaries will be provided for study medication related adverse events, death, serious adverse events, other significant adverse events leading to discontinuation and adverse events leading to dose adjustment.

[5] = central review, Full Analysis Set
[6] = All grades, randomized treatment period, Safety Set
[7] = Grade >=3, randomized treatment period, Safety Set
[8] = randomized treatment period, Safety Set

C[C@@H](O)[C@@H]1NC(=O)[C@H](CCCCN)NC(=O)[C@@H](Cc2c[nH]c3ccccc23)NC(=O)[C@H](Cc2ccccc2)NC(=O)[C@@H](NC(=O)[C@H](N)Cc2ccccc2)CSSC[C@@H](C(=O)N[C@H](CO)[C@@H](C)O)NC1=O [Octreotide LAR, octreotide]
ORR ([1]; listed as High-dose Octreotide): 9.3%
ORR ([1]; listed as high-dose Octreotide): 9.3% (3.8%, 18.3%) for Lutathera vs. high-dose
Best Overall Response: Complete Response (CR) [1, 5]: 0 n (%)
Best Overall Response: Non-CR/Non-PD [1, 5]: 1 (1.3) n (%)
Best Overall Response: Partial Response (PR) [1, 5]: 7 (9.3) n (%)
Best Overall Response: Progressive Disease (PD) [1, 5]: 14 (18.7) n (%)
Best Overall Response: Unknown [1, 5]: 11 (14.7) n (%)
Overall Response Rate (ORR: CR + PR) [1, 5]: 7 (9.3) n (%)
Reason for End of Randomized Treatment Phase: Adverse Event ([2]; Full Analysis Set): 1 (1.3) n (%)
Reason for End of Randomized Treatment Phase: Death ([2]; Full Analysis Set): 4 (5.3) n (%)
Reason for End of Randomized Treatment Phase: Progressive Disease ([2]; Full Analysis Set): 44 (58.7) n (%)
Treatment discontinuation due to adverse event ([2]; randomized period): 1.3%
discontinuation for progressive disease ([2]; randomized period): 58.7%
confirmed events (disease progressions RECIST 1.1 centrally assessed or deaths) (midgut carcinoid tumors; NETTER-1): 70
median PFS (midgut carcinoid tumors; NETTER-1): 8.5 months
median time free from relapse (midgut carcinoid tumors; NETTER-1 control arm, high dose (60 mg)): 8.4 months
side effects [3]: without notable side effects
Fatal SAEs [4, 6]: 2 (2.7) n (%)
Fatal SAEs Related to Any Treatment [4, 6]: 0 n (%)
Fatal SAEs Related to Octreotide [4, 6]: 0 n (%)
SAEs Related to Any Treatment [4, 6]: 1 (1.4) n (%)
SAEs Related to Octreotide [4, 6]: 1 (1.4) n (%)
Serious adverse event: Abdominal pain [4, 6]: 0 n (%)
Serious adverse event: Abdominal sepsis [4, 6]: 1 (1.4) n (%)
Serious adverse event: Acute coronary syndrome [4, 6]: 1 (1.4) n (%)
Serious adverse event: Acute kidney injury [4, 6]: 1 (1.4) n (%)
Serious adverse event: Anaemia [4, 6]: 1 (1.4) n (%)
Serious adverse event: Ascites [4, 6]: 1 (1.4) n (%)
Serious adverse event: Blood bilirubin increased [4, 6]: 1 (1.4) n (%)
Serious adverse event: Carcinoid heart disease [4, 6]: 1 (1.4) n (%)
Serious adverse event: Carcinoid syndrome [4, 6]: 1 (1.4) n (%)
Serious adverse event: Diarrhoea [4, 6]: 1 (1.4) n (%)
Serious adverse event: Femur fracture [4, 6]: 1 (1.4) n (%)
Serious adverse event: Gastroenteritis [4, 6]: 1 (1.4) n (%)
Serious adverse event: Gastrointestinal stoma complication [4, 6]: 0 n (%)
Serious adverse event: Generalised oedema [4, 6]: 1 (1.4) n (%)
Serious adverse event: Hip fracture [4, 6]: 1 (1.4) n (%)
Serious adverse event: Hyperglycaemia [4, 6]: 1 (1.4) n (%)
Serious adverse event: Hypertension [4, 6]: 1 (1.4) n (%)
Serious adverse event: Hypoalbuminaemia [4, 6]: 1 (1.4) n (%)
Serious adverse event: Intestinal obstruction [4, 6]: 1 (1.4) n (%)
Serious adverse event: Jaundice [4, 6]: 1 (1.4) n (%)
Serious adverse event: Lower gastrointestinal haemorrhage [4, 6]: 1 (1.4) n (%)
Serious adverse event: Metabolic encephalopathy [4, 6]: 1 (1.4) n (%)
Serious adverse event: Oedema peripheral [4, 6]: 1 (1.4) n (%)
Serious adverse event: Pleurisy [4, 6]: 1 (1.4) n (%)
Serious adverse event: Pyrexia [4, 6]: 0 n (%)
Serious adverse event: Small intestinal obstruction [4, 6]: 0 n (%)
Serious adverse event: Tumour lysis syndrome [4, 6]: 1 (1.4) n (%)
Fatal SAEs [4, 7]: 2 (2.7) n (%)
Fatal SAEs Related to Any Treatment [4, 7]: 0 n (%)
Fatal SAEs Related to Octreotide [4, 7]: 0 n (%)
SAEs Related to Any Treatment [4, 7]: 1 (1.4) n (%)
SAEs Related to Octreotide [4, 7]: 1 (1.4) n (%)
Serious adverse event: Abdominal pain [4, 7]: 0 n (%)
Serious adverse event: Abdominal sepsis [4, 7]: 1 (1.4) n (%)
Serious adverse event: Acute coronary syndrome [4, 7]: 0 n (%)
Serious adverse event: Acute kidney injury [4, 7]: 1 (1.4) n (%)
Serious adverse event: Anaemia [4, 7]: 1 (1.4) n (%)
Serious adverse event: Ascites [4, 7]: 1 (1.4) n (%)
Serious adverse event: Blood bilirubin increased [4, 7]: 1 (1.4) n (%)
Serious adverse event: Carcinoid heart disease [4, 7]: 1 (1.4) n (%)
Serious adverse event: Carcinoid syndrome [4, 7]: 1 (1.4) n (%)
Serious adverse event: Diarrhoea [4, 7]: 1 (1.4) n (%)
Serious adverse event: Femur fracture [4, 7]: 0 n (%)
Serious adverse event: Gastroenteritis [4, 7]: 1 (1.4) n (%)
Serious adverse event: Gastrointestinal stoma complication [4, 7]: 0 n (%)
Serious adverse event: Generalised oedema [4, 7]: 1 (1.4) n (%)
Serious adverse event: Hip fracture [4, 7]: 1 (1.4) n (%)
Serious adverse event: Hyperglycaemia [4, 7]: 1 (1.4) n (%)
Serious adverse event: Hypertension [4, 7]: 1 (1.4) n (%)
Serious adverse event: Hypoalbuminaemia [4, 7]: 1 (1.4) n (%)
Serious adverse event: Intestinal obstruction [4, 7]: 1 (1.4) n (%)
Serious adverse event: Jaundice [4, 7]: 1 (1.4) n (%)
Serious adverse event: Lower gastrointestinal haemorrhage [4, 7]: 1 (1.4) n (%)
Serious adverse event: Metabolic encephalopathy [4, 7]: 1 (1.4) n (%)
Serious adverse event: Oedema peripheral [4, 7]: 1 (1.4) n (%)
Serious adverse event: Pleurisy [4, 7]: 1 (1.4) n (%)
Serious adverse event: Pyrexia [4, 7]: 0 n (%)
Serious adverse event: Small intestinal obstruction [4, 7]: 0 n (%)
Serious adverse event: Tumour lysis syndrome [4, 7]: 1 (1.4) n (%)
Incidence of SAEs: Small intestinal obstruction ([4]; most frequent SAE, summary table): 0 (%)
Serious AEs ([4]; randomized treatment period): 20.5%
Serious AEs, Treatment-related ([4]; randomized treatment period): 1.4%
SAE with fatal outcome: Blood bilirubin increased [4, 8]: 0 n (%)
SAE with fatal outcome: Diarrhoea [4, 8]: 1 (1.4) n (%)
SAE with fatal outcome: Dyspnoea [4, 8]: 0 n (%)
SAE with fatal outcome: Intestinal perforation [4, 8]: 0 n (%)
SAE with fatal outcome: Tumor Lysis syndrome [4, 8]: 1 (1.4) n (%)
SAEs with fatal outcome [4, 8]: 2 (2.7) n (%)
SAEs with fatal outcome reported in subjects with primary reason for death = Disease under Study [4, 8]: 2 (2.7) n (%)
